Test results from US11267831B2, “EF-Tu-binding metal-containing antibiotic” (Ruhr-Universitaet Bochum, priority 2017, dated 2022).

system: B. subtilis; test: Proteome analysis via 2D-PAGE with 35S-methionine labelling of newly synthesized proteins; type: cell-based, Bacillus subtilis; conditions: 3 μg/ml DS50, 0.15 μg/ml nocathiacin I, 8 μg/ml GE2270 A or 50 μg/ml kirromycin, 15 min
Protocol: B. subtilis was grown to an OD500 of 0.35 in BMM and treated with 3 μg/ml DS50 or 12 μg/ml biotin-DS50 for 15 min or left untreated as control. The following concentrations were used for the reference antibiotics: 0.15 μg/ml nocathiacin I, 8 μg/ml GE2270 A or 50 μg/ml kirromycin. Radioactive labelling of newly synthesized proteins during antibiotic treatment with ^35S-methionine and 2D-PAGE analysis were essentially performed as described^38.
Protein spots were cut out of the gel and decolorized twice in a washing solution (20 mM ammonium bicarbonate, 30% acetonitrile). Disulfide bridges in proteins from gel pieces obtained from 1D-PAGE gels were reduced with 10 mM DTT in wash solution at 60° C. for 45 min. Cysteine alkylation was then performed with 50 mM iodoacetamide (IAA) in a washing solution for 25 min at room temperature in the dark. The gel pieces were washed twice with washing solution for 5 min at room temperature. The reduction and alkylation steps were omitted for samples from 2D-PAGE experiments. […] Gradient for identification of proteins from 1D-PAGE: initial, 0.5% eluant B (0.1% formic acid (FA) in acetonitrile); 1 min, 0.5% eluant B; 45 min, 60% eluant B; 48 min, 90% eluant B; 49 min, 99% eluant B; 51 min, 99% eluant B; 52 min, 0.5% eluant B; 60 min, 0.5% eluant B. 0.1% FA in water served as eluent A. Gradient for the identification of proteins from 2D-PAGE: initial, 0.5% eluent B; 22 min, 50% eluent B; 23 min, 99% eluent B; 26 min, 99% eluent B; 27 min, 0.5% eluent B; 30 min, 0.5% eluent B. Continuous MS^E spectra were recorded in a mass range of 50-1200 m/z and with a scanning time of […] in positive resolution mode with the following settings: Capillary voltage, 1.7 kV; cone voltage, 30 V; source temperature, 100° C.; cone gas flow, 50 l/h; desolvation gas flow, 500 l/h; desolvation temperature, 150° C. […] For protein identification, a database with 4180 proteins of B. subtilis was used (NCBI reference sequence: NC_000964.3, manually added: trypsin, keratin, quantification standard PhosB). […]

Compound	protein biosynthesis compared to control conditions
CNC(=O)C[C@@H]1NC(=O)c2csc(n2)-c2ccc(-c3nc(C4=N[C@H](C(=O)N5CCC[C@H]5C(N)=O)CO4)cs3)nc2-c2csc(n2)-c2csc(n2)[C@H]([C@@H](O)c2ccccc2)NC(=O)CNC(=O)c2nc(sc2COC)[C@H](C(C)C)NC(=O)c2nc1sc2C [GE2270 A]	−65%
C=C(NC(=O)c1csc(-c2nc3c(cc2O)-c2nc(cs2)C(=O)N[C@@H]([C@@H](C)O)C(=O)N/C(=C(\C)OC)c2nc(cs2)C(=O)N[C@@H]2c4nc(cs4)C(=O)N[C@@H](COC(=O)c4c5c6c(cccc6n4O)COC(=O)[C@@H](O[C@H]4C[C@](C)(O)[C@H](N(C)C)[C@H](C)O4)[C@H]2OC5)c2nc-3cs2)n1)C(N)=O.O=C(O)C(F)(F)F [nocathiacin I]	−15%
kirromycin	not affected
